ChEMBL document CHEMBL1201862, “PubChem BioAssay data set” (2004)
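Tested at 5 concentrations; 48 h exposure; 96-well plates; endpoints linearly interpolated, else capped at highest concentration. GI50: concentration for 50% inhibition of growth.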 Active and inactive are the calls of the source. Rule as the data show it: active = GI50 up to about 1.1 µM and inactive = higher.

Experiments:
Assay in all cases: growth of human tumour cells (NCI), 48 h
MCF7 = test system: MCF7
COLO 205 = test system: COLO 205
UO-31 = test system: UO-31
K562 = test system: K562
SK-OV-3 = test system: SK-OV-3
T47D = test system: T47D
Malme-3M = test system: Malme-3M
HCT-116 = test system: HCT-116
NCI-H23 = test system: NCI-H23
NCI/ADR-RES = test system: NCI/ADR-RES
OVCAR-8 = test system: OVCAR-8
SK-MEL-5 = test system: SK-MEL-5
HCT-15 = test system: HCT-15
OVCAR-4 = test system: OVCAR-4
LOX IMVI = test system: LOX IMVI
SNB-75 = test system: SNB-75
Hs-578T = test system: Hs-578T
DU-145 = test system: DU-145
HOP-62 = test system: HOP-62
HT-29 = test system: HT-29
UACC-62 = test system: UACC-62
NCI-H226 = test system: NCI-H226
PC-3 = test system: PC-3
HL-60 = test system: HL-60
OVCAR-3 = test system: OVCAR-3
NCI-H522 = test system: NCI-H522
ACHN = test system: ACHN
IGROV-1 = test system: IGROV-1
TK-10 = test system: TK-10
CAKI-1 = test system: CAKI-1
RXF 393 = test system: RXF 393
SK-MEL-28 = test system: SK-MEL-28
KM12 = test system: KM12
U-251 = test system: U-251
786-0 = test system: 786-0
SF-268 = test system: SF-268
SN12C = test system: SN12C
SR = test system: SR
RPMI-8226 = test system: RPMI-8226
EKVX = test system: EKVX
CCRF-CEM = test system: CCRF-CEM
SK-MEL-2 = test system: SK-MEL-2
UACC-257 = test system: UACC-257
SF-539 = test system: SF-539
HOP-92 = test system: HOP-92
SNB-19 = test system: SNB-19
HCC 2998 = test system: HCC 2998
MDA-MB-435 = test system: MDA-MB-435
M14 = test system: M14
A549 = test system: A549
SW-620 = test system: SW-620
MOLT-4 = test system: MOLT-4
MDA-N = test system: MDA-N
NCI-H460 = test system: NCI-H460
BT-549 = test system: BT-549
SF-295 = test system: SF-295
MDA-MB-231 = test system: MDA-MB-231
A498 = test system: A498
OVCAR-5 = test system: OVCAR-5

Compound: Cc1ccc(-c2nc3cc([N+](=O)[O-])ccc3[nH]2)cc1
- GI50 (MCF7): > 100 µM (inactive)
- GI50 (COLO 205): 72.9 µM (inactive)
- GI50 (UO-31): 57.8 µM (inactive)
- GI50 (K562): 59.3 µM (inactive)
- GI50 (SK-OV-3): > 100 µM (inactive)
- GI50 (T47D): 39.6 µM (inactive)
- GI50 (Malme-3M): > 100 µM (inactive)
- GI50 (HCT-116): 89.9 µM (inactive)
- GI50 (NCI-H23): > 100 µM (inactive)
- GI50 (NCI/ADR-RES): 40.8 µM (inactive)
- GI50 (OVCAR-8): 93.1 µM (inactive)
- GI50 (SK-MEL-5): 64.7 µM (inactive)
- GI50 (HCT-15): 52.8 µM
- GI50 (OVCAR-4): 81.8 µM (inactive)
- GI50 (LOX IMVI): 80.5 µM (inactive)
- GI50 (SNB-75): > 100 µM (inactive)
- GI50 (Hs-578T): > 100 µM (inactive)
- GI50 (DU-145): 82.8 µM (inactive)
- GI50 (HOP-62): > 100 µM (inactive)
- GI50 (HT-29): 39.2 µM (inactive)
- GI50 (UACC-62): > 100 µM (inactive)
- GI50 (NCI-H226): > 100 µM (inactive)
- GI50 (PC-3): 38.9 µM (inactive)
- GI50 (HL-60): 45.3 µM (inactive)
- GI50 (OVCAR-3): 67.5 µM (inactive)
- GI50 (NCI-H522): 41.7 µM (inactive)
- GI50 (ACHN): 53 µM (inactive)
- GI50 (IGROV-1): > 100 µM (inactive)
- GI50 (TK-10): > 100 µM (inactive)
- GI50 (CAKI-1): 38 µM (inactive)
- GI50 (RXF 393): > 100 µM (inactive)
- GI50 (SK-MEL-28): > 100 µM (inactive)
- GI50 (KM12): 54 µM (inactive)
- GI50 (U-251): > 100 µM (inactive)
- GI50 (786-0): > 100 µM (inactive)
- GI50 (SF-268): > 100 µM (inactive)
- GI50 (SN12C): > 100 µM (inactive)
- GI50 (SR): 70.8 µM (inactive)
- GI50 (RPMI-8226): 43.1 µM (inactive)
- GI50 (EKVX): 51.6 µM (inactive)
- GI50 (CCRF-CEM): 39.6 µM (inactive)
- GI50 (SK-MEL-2): > 100 µM (inactive)
- GI50 (UACC-257): 80.4 µM (inactive)
- GI50 (SF-539): > 100 µM (inactive)
- GI50 (HOP-92): > 100 µM (inactive)
- GI50 (SNB-19): > 100 µM (inactive)
- GI50 (HCC 2998): 43.4 µM (inactive)
- GI50 (MDA-MB-435): > 100 µM (inactive)
- GI50 (M14): > 100 µM (inactive)
- GI50 (A549): 54.1 µM (inactive)
- GI50 (SW-620): > 100 µM (inactive)
- GI50 (MOLT-4): 47.4 µM (inactive)
- GI50 (MDA-N): > 100 µM (inactive)
- GI50 (NCI-H460): 42.8 µM (inactive)
- GI50 (BT-549): > 100 µM (inactive)
- GI50 (SF-295): 63 µM (inactive)
- GI50 (MDA-MB-231): > 100 µM (inactive)

Compound: CN(C(=O)Nc1ccc(Cl)c(Cl)c1)C1CCCC[C@@H]1N1CCCC1 (stereo partly drawn)
- GI50 (MCF7): 33.6 µM (inactive)
- GI50 (COLO 205): 18.1 µM (inactive)
- GI50 (UO-31): 19.3 µM (inactive)
- GI50 (K562): 24.2 µM (inactive)
- GI50 (SK-OV-3): > 100 µM (inactive)
- GI50 (T47D): 39.6 µM (inactive)
- GI50 (Malme-3M): 22 µM (inactive)
- GI50 (HCT-116): 51.8 µM (inactive)
- GI50 (NCI-H23): > 100 µM (inactive)
- GI50 (NCI/ADR-RES): 72.4 µM (inactive)
- GI50 (OVCAR-8): 79.3 µM (inactive)
- GI50 (SK-MEL-5): 16.3 µM (inactive)
- GI50 (HCT-15): 41.4 µM
- GI50 (OVCAR-4): 41.9 µM (inactive)
- GI50 (LOX IMVI): 30.3 µM (inactive)
- GI50 (SNB-75): 40.2 µM (inactive)
- GI50 (Hs-578T): 33.7 µM (inactive)
- GI50 (DU-145): 58.6 µM (inactive)
- GI50 (HOP-62): > 100 µM (inactive)
- GI50 (HT-29): 29.4 µM (inactive)
- GI50 (UACC-62): 22.9 µM (inactive)
- GI50 (NCI-H226): 0.092 µM (active)
- GI50 (PC-3): 41.4 µM (inactive)
- GI50 (OVCAR-3): 76.6 µM (inactive)
- GI50 (NCI-H522): 41.7 µM (inactive)
- GI50 (ACHN): 52 µM (inactive)
- GI50 (IGROV-1): 41.3 µM (inactive)
- GI50 (TK-10): 33.3 µM (inactive)
- GI50 (CAKI-1): 70.6 µM (inactive)
- GI50 (A498): 24.2 µM (inactive)
- GI50 (OVCAR-5): 32.4 µM (inactive)
- GI50 (RXF 393): 37.7 µM (inactive)
- GI50 (SK-MEL-28): 21.7 µM (inactive)
- GI50 (KM12): 39.5 µM (inactive)
- GI50 (U-251): 53.7 µM (inactive)
- GI50 (786-0): 48.6 µM (inactive)
- GI50 (SF-268): 31.6 µM (inactive)
- GI50 (SN12C): > 100 µM (inactive)
- GI50 (SR): 21 µM (inactive)
- GI50 (RPMI-8226): 24.7 µM (inactive)
- GI50 (EKVX): 47.5 µM (inactive)
- GI50 (CCRF-CEM): 30.5 µM (inactive)
- GI50 (SK-MEL-2): 38.3 µM (inactive)
- GI50 (UACC-257): 18.8 µM (inactive)
- GI50 (HOP-92): 34.4 µM (inactive)
- GI50 (SNB-19): 66.7 µM (inactive)
- GI50 (MDA-MB-435): 33 µM (inactive)
- GI50 (M14): 19.1 µM (inactive)
- GI50 (A549): 61.2 µM (inactive)
- GI50 (SW-620): 63.7 µM (inactive)
- GI50 (MOLT-4): 19.6 µM (inactive)
- GI50 (MDA-N): 34 µM (inactive)
- GI50 (NCI-H460): 36.6 µM (inactive)
- GI50 (BT-549): 22.4 µM (inactive)
- GI50 (SF-295): 84.7 µM (inactive)
- GI50 (MDA-MB-231): 47.9 µM (inactive)
